Values quoted from earlier work, collected in US11116842B2, “Methylene blue complex for treating skin disease and its use thereof” (D. R. NANO Co., Ltd., priority 2017, dated 2021).

Tested on: skin disease such as acne
Details: for side effect in a long-term application: background art

Structure (SMILES) | side effect in a long-term application | Light protection time after operation (prior-art photosensitizers) | Treatment effect (prior-art photosensitizers)
NCC(=O)CCC(=O)O [ALA, 5-aminolevulinic acid] | xeroderma | T > 30 hr | strong
COC(=O)CCC(=O)CN [MAL, Methyl-aminolevulinate] | xeroderma |  | 
